{"source": "paper PMC5513037", "about": "“Examining the influence of specificity ligands and ATP-competitive ligands on the overall effectiveness of bivalent kinase inhibitors” (Proteome Science, 2017)", "key": {"SCYL1": {"molecular_target": "T1, SCYL1 (Homo sapiens, UniProt Q96KG9)", "T1 sequence (Q96KG9 1-808)": "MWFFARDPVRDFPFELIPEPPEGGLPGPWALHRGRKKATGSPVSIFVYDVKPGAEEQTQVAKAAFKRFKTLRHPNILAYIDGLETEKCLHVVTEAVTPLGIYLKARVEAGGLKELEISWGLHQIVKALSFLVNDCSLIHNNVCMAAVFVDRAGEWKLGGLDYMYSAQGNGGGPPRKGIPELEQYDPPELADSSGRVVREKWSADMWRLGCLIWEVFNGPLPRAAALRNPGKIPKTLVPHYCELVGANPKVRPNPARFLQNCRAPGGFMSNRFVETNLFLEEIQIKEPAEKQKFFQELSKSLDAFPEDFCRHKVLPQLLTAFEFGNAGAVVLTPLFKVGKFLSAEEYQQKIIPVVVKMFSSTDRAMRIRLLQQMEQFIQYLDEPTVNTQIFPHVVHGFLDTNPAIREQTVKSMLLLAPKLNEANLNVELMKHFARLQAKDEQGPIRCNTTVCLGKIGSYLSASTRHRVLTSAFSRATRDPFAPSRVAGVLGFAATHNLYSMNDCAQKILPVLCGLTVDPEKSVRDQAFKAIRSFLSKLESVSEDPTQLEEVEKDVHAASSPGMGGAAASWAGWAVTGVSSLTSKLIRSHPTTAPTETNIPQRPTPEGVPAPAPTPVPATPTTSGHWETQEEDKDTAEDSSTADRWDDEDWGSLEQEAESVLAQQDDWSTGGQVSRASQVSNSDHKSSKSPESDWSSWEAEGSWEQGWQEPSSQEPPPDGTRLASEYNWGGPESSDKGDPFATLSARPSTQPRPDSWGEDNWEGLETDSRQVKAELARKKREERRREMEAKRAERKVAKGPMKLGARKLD", "experiment": "biochemical", "text": "Data were visualized for further analysis using Spotfire DXP."}, "CIT": {"molecular_target": "T2, CIT (Homo sapiens, UniProt O14578)", "T2 construct": "endogenous in cells; host or cells: K562 lysate", "T2 sequence (O14578 whole entry)": "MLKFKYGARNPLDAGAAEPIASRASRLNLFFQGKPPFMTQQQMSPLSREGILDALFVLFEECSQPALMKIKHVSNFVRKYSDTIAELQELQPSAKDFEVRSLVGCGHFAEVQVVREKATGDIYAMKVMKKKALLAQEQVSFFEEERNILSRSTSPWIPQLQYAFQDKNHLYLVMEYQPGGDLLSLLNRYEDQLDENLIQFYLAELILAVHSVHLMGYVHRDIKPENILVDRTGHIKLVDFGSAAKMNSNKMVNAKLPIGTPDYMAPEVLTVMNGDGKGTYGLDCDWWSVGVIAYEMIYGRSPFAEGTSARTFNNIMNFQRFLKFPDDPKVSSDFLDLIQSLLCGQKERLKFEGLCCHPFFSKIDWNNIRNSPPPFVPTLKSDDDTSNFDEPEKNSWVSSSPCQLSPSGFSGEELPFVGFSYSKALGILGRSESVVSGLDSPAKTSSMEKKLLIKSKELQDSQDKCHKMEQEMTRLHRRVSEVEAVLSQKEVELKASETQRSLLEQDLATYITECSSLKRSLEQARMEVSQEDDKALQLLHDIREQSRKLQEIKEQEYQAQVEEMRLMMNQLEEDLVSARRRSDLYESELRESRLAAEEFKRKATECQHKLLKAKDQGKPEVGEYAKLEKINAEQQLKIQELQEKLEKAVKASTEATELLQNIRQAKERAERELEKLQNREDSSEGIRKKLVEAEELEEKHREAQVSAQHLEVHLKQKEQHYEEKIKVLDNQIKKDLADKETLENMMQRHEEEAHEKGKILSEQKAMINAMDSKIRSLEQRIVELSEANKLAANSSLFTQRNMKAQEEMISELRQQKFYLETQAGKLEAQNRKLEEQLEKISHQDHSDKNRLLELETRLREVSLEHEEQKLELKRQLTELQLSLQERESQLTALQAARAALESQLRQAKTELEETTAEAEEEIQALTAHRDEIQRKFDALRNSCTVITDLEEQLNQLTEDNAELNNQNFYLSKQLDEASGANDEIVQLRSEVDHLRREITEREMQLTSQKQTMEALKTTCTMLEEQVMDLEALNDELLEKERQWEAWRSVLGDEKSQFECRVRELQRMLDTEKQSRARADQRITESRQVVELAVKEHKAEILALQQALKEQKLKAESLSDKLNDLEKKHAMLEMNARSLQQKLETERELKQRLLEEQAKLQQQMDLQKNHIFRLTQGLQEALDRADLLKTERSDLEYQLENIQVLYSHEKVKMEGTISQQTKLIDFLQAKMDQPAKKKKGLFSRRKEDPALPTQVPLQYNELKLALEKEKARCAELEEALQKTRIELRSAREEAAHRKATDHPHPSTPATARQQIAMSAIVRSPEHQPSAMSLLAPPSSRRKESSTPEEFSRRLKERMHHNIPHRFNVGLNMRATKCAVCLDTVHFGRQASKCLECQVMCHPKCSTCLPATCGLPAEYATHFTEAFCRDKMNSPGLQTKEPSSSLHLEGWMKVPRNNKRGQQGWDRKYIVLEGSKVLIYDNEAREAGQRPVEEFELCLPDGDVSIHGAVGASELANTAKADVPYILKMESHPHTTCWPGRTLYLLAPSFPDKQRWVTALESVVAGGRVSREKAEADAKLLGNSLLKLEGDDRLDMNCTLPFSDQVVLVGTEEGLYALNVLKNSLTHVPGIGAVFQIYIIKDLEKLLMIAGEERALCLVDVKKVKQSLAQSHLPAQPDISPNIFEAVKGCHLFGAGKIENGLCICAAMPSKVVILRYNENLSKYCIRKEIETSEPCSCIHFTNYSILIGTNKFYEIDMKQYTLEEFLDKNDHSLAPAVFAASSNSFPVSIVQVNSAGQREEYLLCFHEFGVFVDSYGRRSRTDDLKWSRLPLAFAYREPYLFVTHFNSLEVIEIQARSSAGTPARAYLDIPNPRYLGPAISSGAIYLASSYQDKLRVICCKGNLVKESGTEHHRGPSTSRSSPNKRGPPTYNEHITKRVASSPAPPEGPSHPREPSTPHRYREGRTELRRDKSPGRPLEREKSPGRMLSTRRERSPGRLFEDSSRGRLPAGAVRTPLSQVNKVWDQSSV", "experiment": "KAM-matrix competition in K562 lysate;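 for 0.001 uM KAM: median log10 fold change of treatment over DMSO control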;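 for 0.01 uM KAM: median log10 fold change of treatment over DMSO control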;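 for 0.1 uM KAM: median log10 fold change of treatment over DMSO control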;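 for 1 uM KAM: median log10 fold change of treatment over DMSO control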;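 for 10 uM KAM: median log10 fold change of treatment over DMSO control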", "assay_type": "binding", "experimental": "(§1) Supplement 12953_2017_125_MOESM1_ESM.zip/MS_Supp Info.xlsx, sheet \"KAM\" | column: 10 uM KAM; 1 uM KAM; 0.1 uM KAM; 0.01 uM KAM; 0.001 uM KAM; RB50"}, "MAP4K4": {"molecular_target": "T3, MAP4K4 (Homo sapiens, UniProt O95819)", "T3 construct": "endogenous in cells; host or cells: K562", "T3 sequence (O95819 whole entry)": "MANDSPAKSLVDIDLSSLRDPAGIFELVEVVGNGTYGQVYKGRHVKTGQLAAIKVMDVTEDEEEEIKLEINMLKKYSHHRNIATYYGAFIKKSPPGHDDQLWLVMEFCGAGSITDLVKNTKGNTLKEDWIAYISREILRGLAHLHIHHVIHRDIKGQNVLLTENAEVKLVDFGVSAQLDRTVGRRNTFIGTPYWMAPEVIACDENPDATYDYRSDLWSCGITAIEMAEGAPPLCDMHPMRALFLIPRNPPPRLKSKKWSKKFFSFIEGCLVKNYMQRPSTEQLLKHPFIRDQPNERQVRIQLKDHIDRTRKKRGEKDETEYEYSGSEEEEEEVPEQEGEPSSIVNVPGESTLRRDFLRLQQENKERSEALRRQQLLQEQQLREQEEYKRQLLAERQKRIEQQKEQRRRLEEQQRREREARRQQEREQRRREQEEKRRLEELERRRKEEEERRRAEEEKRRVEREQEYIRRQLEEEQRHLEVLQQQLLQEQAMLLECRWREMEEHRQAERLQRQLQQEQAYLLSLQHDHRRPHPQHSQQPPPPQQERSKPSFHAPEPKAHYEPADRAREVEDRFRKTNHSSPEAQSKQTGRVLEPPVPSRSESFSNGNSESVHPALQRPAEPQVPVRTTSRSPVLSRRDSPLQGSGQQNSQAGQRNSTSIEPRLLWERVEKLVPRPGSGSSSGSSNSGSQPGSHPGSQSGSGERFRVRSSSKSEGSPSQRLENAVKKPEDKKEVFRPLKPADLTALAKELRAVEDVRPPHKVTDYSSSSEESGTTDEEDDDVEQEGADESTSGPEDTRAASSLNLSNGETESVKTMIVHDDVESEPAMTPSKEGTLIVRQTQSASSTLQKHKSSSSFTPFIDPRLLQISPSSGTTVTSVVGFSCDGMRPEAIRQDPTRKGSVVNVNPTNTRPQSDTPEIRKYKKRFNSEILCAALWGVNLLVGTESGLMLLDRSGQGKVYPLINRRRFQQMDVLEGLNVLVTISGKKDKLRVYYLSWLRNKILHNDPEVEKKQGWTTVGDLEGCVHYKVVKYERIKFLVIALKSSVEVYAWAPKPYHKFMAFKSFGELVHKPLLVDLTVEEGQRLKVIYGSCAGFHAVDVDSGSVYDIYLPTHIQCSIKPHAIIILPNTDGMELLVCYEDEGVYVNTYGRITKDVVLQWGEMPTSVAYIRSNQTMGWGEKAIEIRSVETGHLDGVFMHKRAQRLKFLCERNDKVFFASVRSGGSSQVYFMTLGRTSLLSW", "experiment": "KAM-matrix competition in K562 lysate", "assay_type": "binding", "experimental": "as §1"}, "PRKD3": {"molecular_target": "T4, PRKD3 (Homo sapiens, UniProt O94806)", "T4 construct": "endogenous in cells; host or cells: K562", "T4 sequence (O94806 1-890)": "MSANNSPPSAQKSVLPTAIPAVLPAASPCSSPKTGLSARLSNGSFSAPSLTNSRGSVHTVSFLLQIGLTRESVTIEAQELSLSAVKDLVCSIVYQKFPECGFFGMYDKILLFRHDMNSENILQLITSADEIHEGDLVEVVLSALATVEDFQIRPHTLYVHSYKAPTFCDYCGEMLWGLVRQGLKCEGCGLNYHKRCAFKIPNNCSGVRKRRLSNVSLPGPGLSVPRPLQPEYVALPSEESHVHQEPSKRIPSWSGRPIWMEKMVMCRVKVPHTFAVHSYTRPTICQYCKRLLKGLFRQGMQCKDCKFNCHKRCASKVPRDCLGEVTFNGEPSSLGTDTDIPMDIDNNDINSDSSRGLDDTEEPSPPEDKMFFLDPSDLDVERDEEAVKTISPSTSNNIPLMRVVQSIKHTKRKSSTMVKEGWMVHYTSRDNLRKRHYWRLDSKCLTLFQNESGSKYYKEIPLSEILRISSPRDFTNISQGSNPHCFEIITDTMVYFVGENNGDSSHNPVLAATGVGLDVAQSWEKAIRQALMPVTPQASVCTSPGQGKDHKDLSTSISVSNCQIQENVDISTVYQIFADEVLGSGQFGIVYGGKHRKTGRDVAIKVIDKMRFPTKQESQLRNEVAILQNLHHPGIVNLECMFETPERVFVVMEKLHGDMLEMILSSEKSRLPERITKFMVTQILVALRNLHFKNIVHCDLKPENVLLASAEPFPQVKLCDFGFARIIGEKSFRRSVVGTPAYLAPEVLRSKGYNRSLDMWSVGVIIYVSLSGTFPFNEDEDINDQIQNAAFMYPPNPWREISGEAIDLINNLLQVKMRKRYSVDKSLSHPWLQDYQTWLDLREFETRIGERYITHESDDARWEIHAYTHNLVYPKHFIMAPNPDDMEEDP", "experiment": "KAM-matrix competition in K562 lysate", "assay_type": "binding", "experimental": "as §1"}, "MAP4K5": {"molecular_target": "T5, MAP4K5 (Homo sapiens, UniProt Q9Y4K4)", "T5 construct": "endogenous in cells; host or cells: K562", "T5 sequence (Q9Y4K4 whole entry)": "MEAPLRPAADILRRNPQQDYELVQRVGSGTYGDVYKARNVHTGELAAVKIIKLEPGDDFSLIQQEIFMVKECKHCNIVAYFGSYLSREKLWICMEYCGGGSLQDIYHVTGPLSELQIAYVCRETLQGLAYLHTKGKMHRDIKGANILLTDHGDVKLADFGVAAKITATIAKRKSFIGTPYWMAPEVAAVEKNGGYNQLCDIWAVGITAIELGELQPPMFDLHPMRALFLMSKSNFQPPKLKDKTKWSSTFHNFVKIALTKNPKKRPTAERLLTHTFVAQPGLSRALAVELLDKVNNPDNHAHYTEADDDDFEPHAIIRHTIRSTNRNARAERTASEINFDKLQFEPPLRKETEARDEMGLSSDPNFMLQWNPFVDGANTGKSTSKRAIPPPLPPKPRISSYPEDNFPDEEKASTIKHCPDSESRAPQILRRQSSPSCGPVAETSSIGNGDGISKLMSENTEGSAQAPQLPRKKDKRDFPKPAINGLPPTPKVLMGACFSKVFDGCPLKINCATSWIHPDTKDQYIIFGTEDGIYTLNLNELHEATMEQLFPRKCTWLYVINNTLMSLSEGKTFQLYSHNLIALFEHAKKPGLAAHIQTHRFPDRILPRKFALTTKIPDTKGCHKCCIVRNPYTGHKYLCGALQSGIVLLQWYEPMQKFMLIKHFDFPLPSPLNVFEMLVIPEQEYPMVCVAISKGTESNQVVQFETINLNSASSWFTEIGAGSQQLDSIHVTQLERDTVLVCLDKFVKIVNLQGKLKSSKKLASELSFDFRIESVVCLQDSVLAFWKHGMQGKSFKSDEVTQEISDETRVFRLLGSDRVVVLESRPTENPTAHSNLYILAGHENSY", "experiment": "KAM-matrix competition in K562 lysate", "assay_type": "binding", "experimental": "as §1"}, "[1]": {"details": "KAM 0.001-10 uM, read-out: RB50 (the source's name)"}, "[2]": {"details": "read-out: RB50 (the source's name)"}}, "data": [{"smiles": "Cc1ccc(NC(=O)c2ccc(CN3CCN(C)CC3)cc2)cc1Nc1nccc(-c2cccnc2)n1", "note": "[Imatinib]", "values": [{"measurement": "IC50", "setting": "SCYL1", "result": "> 10000", "unit": "nM"}]}, {"smiles": "N#CCc1ccc(Nc2nc(NCCCN)cc(Nc3cc(C4CC4)[nH]n3)n2)cc1", "note": "[KAM]", "values": [{"measurement": "IC50", "setting": "CIT; [1]", "result": "> 10000", "unit": "nM"}, {"measurement": "0.001 uM KAM", "setting": "CIT; relative to 0 uM KAM = 0", "result": -0.03357}, {"measurement": "0.01 uM KAM", "setting": "CIT; relative to 0 uM KAM = 0", "result": -0.05687}, {"measurement": "0.1 uM KAM", "setting": "CIT; relative to 0 uM KAM = 0", "result": -0.1025}, {"measurement": "1 uM KAM", "setting": "CIT; relative to 0 uM KAM = 0", "result": -0.03677}, {"measurement": "10 uM KAM", "setting": "CIT; relative to 0 uM KAM = 0", "result": -0.04946}, {"measurement": "IC50", "setting": "MAP4K4; [1]", "result": "> 10000", "unit": "nM"}, {"measurement": "0.001 uM KAM", "setting": "MAP4K4; relative to 0 uM KAM = 0", "result": -0.04181}, {"measurement": "0.01 uM KAM", "setting": "MAP4K4; relative to 0 uM KAM = 0", "result": -0.007384}, {"measurement": "0.1 uM KAM", "setting": "MAP4K4; relative to 0 uM KAM = 0", "result": -0.1078}, {"measurement": "1 uM KAM", "setting": "MAP4K4; relative to 0 uM KAM = 0", "result": -0.1201}, {"measurement": "10 uM KAM", "setting": "MAP4K4; relative to 0 uM KAM = 0", "result": -0.1434}, {"measurement": "median Log10 fold change", "setting": "PRKD3; 0.001 uM KAM", "result": -0.02816}, {"measurement": "median Log10 fold change", "setting": "PRKD3; 0.01 uM KAM", "result": -0.02551}, {"measurement": "median Log10 fold change", "setting": "PRKD3; 0.1 uM KAM", "result": -0.171}, {"measurement": "median Log10 fold change", "setting": "PRKD3; 1 uM KAM", "result": -0.366}, {"measurement": "median Log10 fold change", "setting": "PRKD3; 10 uM KAM", "result": -0.539}, {"measurement": "IC50", "setting": "PRKD3; [2]", "result": 633, "unit": "nM"}, {"measurement": "median Log10 fold change", "setting": "MAP4K5; 0.001 uM KAM", "result": 0.009454}, {"measurement": "median Log10 fold change", "setting": "MAP4K5; 0.01 uM KAM", "result": -0.01011}, {"measurement": "median Log10 fold change", "setting": "MAP4K5; 0.1 uM KAM", "result": -0.2304}, {"measurement": "median Log10 fold change", "setting": "MAP4K5; 1 uM KAM", "result": -0.4191}, {"measurement": "median Log10 fold change", "setting": "MAP4K5; 10 uM KAM", "result": -0.5735}, {"measurement": "IC50", "setting": "MAP4K5; [2]", "result": 332, "unit": "nM"}]}]}
